Structures are written as SMILES.

Data set [1] is described as follows: Octanol-water partitioning co-efficient, log D of the compound at pH 7.4 by LC/MS/MS analysis. It counts as physicochemical.
The nature of data set [2]: Apparent permeability in human Caco2 cells at 10 uM after 45 to 120 mins by LC/MS/MS analysis. It counts as ADME, cell-based. Particulars: Caco-2. On the technique in general: Caco-2 cells form a polarised layer with tight junctions and transporters.
Data set [3] can be described thus: Intrinsic clearance in human hepatocytes assessed per million cells at 1 uM measured up to 120 mins in presence of NADPH by LC-MS/MS analysis. Particulars: read-out: CLH. It counts as ADME, cell-based, Hepatocyte.
Data set [4] concerns Rattus norvegicus. Nature of the data set: Induction of hyperkalemia in Sprague-Dawley rat fed on low salt diet for 72 hrs assessed as increase in Na+/K+ ratio in urine administered via oral gavage after 8 hrs. It counts as organism-based. The settings on record: in vivo.
Data set [5] can be described thus: Fraction unbound in Han Wistar rat plasma at 1 uM after 4 hrs by LC/MS/MS analysis. It counts as ADME, cell-free.
Data set [6] in a line: Intrinsic clearance in Han Wistar rat hepatocytes assessed per million cells at 1 uM after 4 hrs by LC/MS/MS analysis. The settings on record: read-out: CLH. It counts as ADME, cell-based, Hepatocyte.
A short description of data set [7]: Volume of distribution at steady state in Han Wistar rat at 1.2 mg/kg, iv by LC-MS/MS analysis. It counts as ADME, organism-based. Particulars: in vivo, read-out: Vdss.
The nature of data set [8]: Clearance in Han Wistar rat at 1.2 mg/kg, iv by LC-MS/MS analysis. It counts as ADME, organism-based. The settings on record: in vivo.
Data set [9] is described as follows: Terminal half life in Han Wistar rat at 1.2 mg/kg, iv by LC-MS/MS analysis. It counts as ADME, organism-based. The settings on record: in vivo, read-out: beta t1/2 (converted).
The nature of data set [10]: Oral bioavailability in Han Wistar rat at 99 mg/kg by LC-MS/MS analysis. Particulars: in vivo. It counts as ADME, organism-based.
The target in data set [11] is T1, Mineralocorticoid receptor (Homo sapiens, UniProt P08235).
T1 sequence (P08235 whole entry): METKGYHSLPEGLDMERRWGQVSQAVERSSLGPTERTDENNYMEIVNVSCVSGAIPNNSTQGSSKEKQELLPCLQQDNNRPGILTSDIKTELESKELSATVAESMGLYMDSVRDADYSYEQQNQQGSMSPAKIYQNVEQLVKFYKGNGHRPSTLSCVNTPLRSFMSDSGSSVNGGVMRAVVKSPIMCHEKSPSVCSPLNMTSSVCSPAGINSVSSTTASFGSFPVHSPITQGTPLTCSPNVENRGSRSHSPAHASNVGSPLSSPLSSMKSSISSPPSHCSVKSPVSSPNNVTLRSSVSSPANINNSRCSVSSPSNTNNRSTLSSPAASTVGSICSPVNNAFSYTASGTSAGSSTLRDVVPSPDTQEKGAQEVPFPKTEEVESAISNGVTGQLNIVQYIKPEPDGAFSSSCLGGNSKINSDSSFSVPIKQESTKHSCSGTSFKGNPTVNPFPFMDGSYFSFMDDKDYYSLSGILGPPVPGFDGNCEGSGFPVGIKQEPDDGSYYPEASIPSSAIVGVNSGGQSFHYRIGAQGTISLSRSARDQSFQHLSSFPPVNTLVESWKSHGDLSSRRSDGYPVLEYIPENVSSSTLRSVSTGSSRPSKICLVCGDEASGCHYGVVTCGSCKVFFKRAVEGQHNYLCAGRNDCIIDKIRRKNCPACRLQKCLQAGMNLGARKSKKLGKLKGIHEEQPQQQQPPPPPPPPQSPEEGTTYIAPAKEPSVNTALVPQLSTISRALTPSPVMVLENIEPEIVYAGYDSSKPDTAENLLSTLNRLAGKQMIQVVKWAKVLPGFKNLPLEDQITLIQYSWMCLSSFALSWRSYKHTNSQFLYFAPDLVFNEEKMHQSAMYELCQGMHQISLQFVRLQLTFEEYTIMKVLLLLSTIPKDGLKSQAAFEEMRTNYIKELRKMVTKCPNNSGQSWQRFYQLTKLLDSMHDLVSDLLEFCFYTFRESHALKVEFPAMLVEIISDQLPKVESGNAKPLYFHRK
Description: Modulation activity at human mineralocorticoid receptor in human EA.hy926 cells assessed as induction of nuclear translocation of mineralocorticoid receptor in absence of aldosterone by receptor translocation assay

The target of data set [12] is T1, Mineralocorticoid receptor. This is another data set of the same source.
Description: Displacement of [3H]-aldosterone to human mineralocorticoid receptor LBD by radiometric binding assay
For data set [13], the target named is T2, Glucocorticoid receptor (Homo sapiens, UniProt P04150).
T2 sequence (P04150 whole entry): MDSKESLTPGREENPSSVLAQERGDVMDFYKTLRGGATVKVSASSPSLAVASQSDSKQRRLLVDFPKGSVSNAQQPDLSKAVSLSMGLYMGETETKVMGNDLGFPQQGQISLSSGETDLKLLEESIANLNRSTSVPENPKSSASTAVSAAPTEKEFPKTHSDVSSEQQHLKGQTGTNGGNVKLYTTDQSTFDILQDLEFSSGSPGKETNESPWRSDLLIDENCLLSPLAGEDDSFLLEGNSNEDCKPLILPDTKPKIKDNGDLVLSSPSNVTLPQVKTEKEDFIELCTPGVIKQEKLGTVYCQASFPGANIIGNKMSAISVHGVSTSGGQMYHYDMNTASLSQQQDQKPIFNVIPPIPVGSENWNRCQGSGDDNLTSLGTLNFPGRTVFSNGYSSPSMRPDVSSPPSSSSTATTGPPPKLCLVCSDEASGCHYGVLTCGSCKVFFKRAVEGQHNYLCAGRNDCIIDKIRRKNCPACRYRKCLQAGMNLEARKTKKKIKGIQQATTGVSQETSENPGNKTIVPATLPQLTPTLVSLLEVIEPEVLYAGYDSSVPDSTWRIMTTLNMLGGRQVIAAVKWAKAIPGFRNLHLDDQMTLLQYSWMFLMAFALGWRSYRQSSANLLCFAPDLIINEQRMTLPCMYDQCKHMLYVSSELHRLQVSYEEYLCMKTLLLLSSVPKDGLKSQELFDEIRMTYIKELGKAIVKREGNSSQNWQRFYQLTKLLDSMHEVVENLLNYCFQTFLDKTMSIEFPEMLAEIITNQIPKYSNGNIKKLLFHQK
Description: Binding affinity to recombinant human GR LBD by fluormone GS red-fluorescence polarization assay

Data set [14] deals with T1, Mineralocorticoid receptor. The source holds these as a separate data set.
Description: Antagonist activity at gal4-fused human mineralocorticoid receptor LBD expressed in UAS-MR-bla HEK293 cells by luciferase reporter gene assay
Data set [15] addresses T1, Mineralocorticoid receptor. The source holds these as a separate data set.
Description: Antagonist activity at full length human mineralocorticoid receptor expressed in human U2OS cells by luciferase reporter gene assay
Data set [16] deals with T3, Mineralocorticoid receptor (Rattus norvegicus, UniProt P22199).
T3 sequence (P22199 whole entry): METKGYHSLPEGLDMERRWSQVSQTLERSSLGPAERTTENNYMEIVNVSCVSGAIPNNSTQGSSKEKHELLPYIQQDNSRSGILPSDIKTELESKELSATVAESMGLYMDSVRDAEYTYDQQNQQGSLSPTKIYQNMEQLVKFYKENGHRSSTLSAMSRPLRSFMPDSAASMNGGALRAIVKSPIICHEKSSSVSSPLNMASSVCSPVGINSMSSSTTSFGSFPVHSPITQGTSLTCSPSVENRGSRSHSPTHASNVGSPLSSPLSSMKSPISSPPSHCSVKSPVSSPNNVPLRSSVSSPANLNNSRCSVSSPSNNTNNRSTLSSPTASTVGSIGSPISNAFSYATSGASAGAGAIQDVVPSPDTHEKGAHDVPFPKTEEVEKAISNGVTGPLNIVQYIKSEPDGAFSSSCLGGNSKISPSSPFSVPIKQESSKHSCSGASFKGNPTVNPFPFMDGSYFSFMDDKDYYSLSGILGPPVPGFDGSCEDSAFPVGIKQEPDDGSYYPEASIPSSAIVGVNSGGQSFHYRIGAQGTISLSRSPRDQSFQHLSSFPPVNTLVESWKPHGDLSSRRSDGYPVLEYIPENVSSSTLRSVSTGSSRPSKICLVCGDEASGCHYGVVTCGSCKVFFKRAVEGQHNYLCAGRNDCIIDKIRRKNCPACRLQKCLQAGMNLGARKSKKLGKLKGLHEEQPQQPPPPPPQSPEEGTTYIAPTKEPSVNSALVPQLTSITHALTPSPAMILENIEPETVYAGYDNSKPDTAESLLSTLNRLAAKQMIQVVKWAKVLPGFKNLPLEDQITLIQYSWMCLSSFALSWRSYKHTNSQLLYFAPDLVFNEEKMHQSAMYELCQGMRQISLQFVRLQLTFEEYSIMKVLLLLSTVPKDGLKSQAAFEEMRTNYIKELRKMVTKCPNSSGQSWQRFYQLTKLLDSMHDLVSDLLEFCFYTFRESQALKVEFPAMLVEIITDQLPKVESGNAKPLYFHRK
Description: Antagonist activity at gal4-fused rat mineralocorticoid receptor LBD in expressed in human U2OS cells by luciferase reporter gene assay

The target in data set [17] is T1, Mineralocorticoid receptor. The source holds these as a separate data set.
Description: Modulation activity at human mineralocorticoid receptor in human EA.hy926 cells assessed as blocking of nuclear translocation of mineralocorticoid receptor in presence of aldosterone by receptor translocation assay
The subject of data set [18] is Rattus norvegicus. Nature of the data set: Induction of hyperkalemia in Sprague-Dawley rat fed on low salt diet for 72 hrs assessed as increase in eplerenone-mediated Na+/K+ ratio in urine administered via oral gavage co-administered with after 8 hrs. It counts as organism-based. Particulars: in vivo.
The nature of data set [19]: Oral bioavailability in Han Wistar rat at 48 mg/kg by LC-MS/MS analysis. It counts as ADME, organism-based. Particulars: in vivo.

The term logD denotes lipophilicity at a set pH, counting ionised and neutral species. A word on the Papp: it is a coefficient for how fast a substance crosses the barrier. For orientation: fraction unbound means the share of the substance not bound to proteins or other matrix. Lower therefore signals extensive binding. The clearance is the rate of elimination divided by the concentration. One may read the bioavailability as dose-corrected exposure relative to a reference, in per cent. As a reminder, the EC50 is the midpoint of the concentration-response curve. Low values mean a more potent agent, high ones a less potent agent. A word on the Ki: it is a measure of affinity in units of concentration, obtained from inhibition or displacement. Low readings indicate a stronger hold on the target, high ones a looser hold on the target. By IC50 is commonly meant the midpoint of a concentration-inhibition curve. A higher IC50 goes with weaker potency. With `NC(=O)C[C@H]1COc2cc(F)cc(F)c2N1C(=O)c1ccc2c(c1)NC(=O)CO2`, in data set [1], the logD was determined as 1.1. The Papp at 10 µM in [2] came to 4.2 ×10⁻⁶ cm/s. Moreover, the results for the hepatocyte CLint at 1 µM in data set [3] and in data set [6] were less than 1 µL/min/1e6 cells and 4.9 µL/min/1e6 cells, respectively. Besides, the Activity entry in data set [4] is listed as “Non-Toxic”. Also, the unbound share (fraction unbound) at 4 h, 1 µM in data set [5] amounted to 0.6. In addition, in data set [7], the Vd worked out at 1.2 L/kg. The clearance in data set [8] stood at 47 mL/min/kg. Also, the half-life in data set [9] is 24.6 min. Also, the bioavailability in [10] turned out to be 50%. It took 12.6 nM to reach a half-maximal effect in data set [11] (EC50). Moreover, the Ki was 100 nM in data set [12] and 1260 nM in [13]. In addition, the IC50 in [14] is 631 nM; in data set [15], 501 nM; in [16], 100 nM; in data set [17], more than 10000 nM.

In turn, `CNC(=O)C[C@H]1COc2ccc(Cl)cc2N1C(=O)c1ccc2c(c1)NC(=O)CO2` came in with a logD in data set [1] of 1.8. Also, the figures for the hepatocyte CLint at 1 µM in data set [3] and in [6] were 4.6 µL/min/1e6 cells and 20 µL/min/1e6 cells, respectively. In addition, the Activity entry in data set [4] and in data set [18] was “Toxic” each time. The compound further displayed a fraction unbound at 4 h, 1 µM in data set [5] of 0.34. In addition, the Vd in [7] stood at 0.8 L/kg. Further, in data set [8], the clearance amounted to 32 mL/min/kg. In data set [9], the half-life is 18 min. In data set [19], the bioavailability was found to be 45%. In data set [11], the EC50 is more than 10000 nM. Moreover, the figures for the Ki in data set [12] and in [13] were 100 nM and 158 nM, respectively. Moreover, the IC50 in data set [14] is 1000 nM; in data set [16], 79.4 nM; in data set [17], 100 nM.

These data come from ChEMBL document CHEMBL4422622, “Identification of Mineralocorticoid Receptor Modulators with Low Impact on Electrolyte Homeostasis but Maintained Organ Protection” (J Med Chem, 2019).
